Reference: patent publication US11484032B2, “Compositions for inhibition of insect sensing” (Vanderbilt University, priority 2011, dated 2022)

Experiments:
[1] = target: T1, mosquito odorant receptor (complex not stated) (Anopheles gambiae, UniProt Q7QCC7); experiment: Agonism of mosquito odorant receptors by VUAA derivatives (complex not stated), cell-based Ca2+ imaging; settings: FIGS. 23, 24, 26, 28; OR complex not stated
T1 sequence (Q7QCC7 1-478): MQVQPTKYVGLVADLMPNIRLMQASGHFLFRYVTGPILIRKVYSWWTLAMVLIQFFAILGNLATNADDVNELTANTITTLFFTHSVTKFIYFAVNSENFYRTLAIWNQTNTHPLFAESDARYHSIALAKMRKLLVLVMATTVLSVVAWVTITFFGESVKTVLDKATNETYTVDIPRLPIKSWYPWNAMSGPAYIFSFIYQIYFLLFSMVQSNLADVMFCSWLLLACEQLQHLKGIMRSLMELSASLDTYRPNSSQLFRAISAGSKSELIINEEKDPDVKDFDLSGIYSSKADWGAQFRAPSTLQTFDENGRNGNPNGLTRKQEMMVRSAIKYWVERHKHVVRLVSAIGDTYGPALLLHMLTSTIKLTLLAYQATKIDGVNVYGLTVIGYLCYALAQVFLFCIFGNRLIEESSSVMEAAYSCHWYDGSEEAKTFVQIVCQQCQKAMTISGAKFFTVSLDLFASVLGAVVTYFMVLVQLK
Text: For transient transfections, ORs were cloned into pCl (Promega) and transfected into Flp-In™ T-REx™293 cell lines (Invitrogen) with Fu GENE6 (Roche). For the creation of stable cell lines, a cell culture expression vector capable of expressing Orco in conjunction with a conventional OR, pcDNA5/FRT/TO (Invitrogen) was modified to create two individual expression cassettes each under the control of a separate CMV/Tet02 promoter and a BGH poly-adenylation signal. Cells (as above) were transfected with the modified pcDNA5 plasmid along with POG44 (a Flp recombinase expression plasmid) to facilitate site-specific recombination. Stable cell lines were selected using Hygromycin B (Invitrogen). Cells were maintained in DMEM (Invitrogen) supplemented with 10% Tetracycline-free FBS (HyClone) and 15 ng/ml Blasticidin. For fluorometric Ca2+ measurements, stable lines expressing ORs of interest were seeded at 20,000 cells/well in black wall, poly-lysine coated 384-well cell culture plates (Greiner) and treated with […] tetracycline (Sigma) overnight to induce OR expression. Cells were dye-loaded with 1.8 uM Fluo-4 AM (Molecular Probes), 2.5 mM Probenecid (Molecular Probes) in assay buffer (20 mM HEPES, IX HBSS) for 45 minutes at 37° C. in 5% CO2 prior to each assay. Ca^2+ mobilization was assayed in an FDSS6000 (Hamamatsu). Baseline readings were taken for 20 s before automated addition of compound previously diluted in DMSO and assay buffer. Ratios were described as Maximum/Minimum response and each response was normalized to the maximum responder.

AgORco+AgOR10 [2] = target: T2, AgORco+AgOR10 (Anopheles gambiae, UniProt Q7QCC7); experiment: Fluo-4 Ca2+ imaging, HEK293 cells expressing Orco+AgOR10; type: cell-based; parameters: Orco 10 + Orco Angatonist % Reduction / Orco 10 + Orco Agonist % of control: concentration or dose not given beside the values; settings: Orco 10 + Orco; for Orco 10 + Orco Angatonist % Reduction: antagonist mode
T2 construct: expressed in transfected cells
T2 sequence (Q7QCC7 1-478): T1 sequence (Q7QCC7 1-478)
Method in brief: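 Stable Flp-In T-REx 293 lines co-expressing Orco and OR, induced overnight with 0.3 u-g/ul tetracycline, loaded with 1.8 uM Fluo-4 AM plus 2.5 mM probenecid for 45 min at 37 °C. Ca2+ mobilization read after 20 s baseline and compound addition; Max/Min ratios normalized to the maximum responder.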

Orco 28 + Orco = target: T3, Orco 28 + Orco (Anopheles gambiae, UniProt Q7QCC7); experiment: Activity against insect odorant sensory receptors, Orco 28 + Orco (Table 1); type: cell-based; settings: for Orco 28 + Orco Antagonist % Reduction: antagonist mode; for Orco 28 + Orco Potentiator % increase: potentiator mode
T3 construct: expressed in transfected cells
T3 sequence (Q7QCC7 1-478): T1 sequence (Q7QCC7 1-478)
Method: The activity against insect odorant sensory receptors was evaluated for various disclosed compounds, and the data were collected in Table 1.

AgORco = target: T4, AgORco (Anopheles gambiae, UniProt Q7QCC7); experiment: Whole-cell patch clamp, HEK293 cells stably expressing AgORco alone; type: cell-based; settings: AgORco alone cells, holding potential −60 mV
T4 construct: expressed in transfected cells
T4 sequence (Q7QCC7 1-478): T1 sequence (Q7QCC7 1-478)
Method: (§1) Currents from OR-expressing HEK293 cells were amplified with an Axopatch 200b Amplifier (Axon Instruments) and digitized through a Digidata 1322A (Axon Instruments). Electrophysiological data was recorded and analyzed using pCLAMP 10 (Axon Instruments). Electrodes were fabricated from quartz tubing (Sutter Instruments) and pulled to 4-6 MiΩ for whole cell recording. Electrodes were filled with internal solution (120 mM KCl, 30 mM D-glucose, 10 mM HEPES, 2 mM MgCl2, 1.1 mM EGTA, and 0.1 CaCl2) (pH 7.35, 280 mOsm). External (bath) solution contained 130 mM NaCl, 34 mM D-glucose, 10 mM HEPES, 1.5 mM CaCl2), 1.3 mM KH2PO4, and 0.5 MgSO4 (pH 7.35, 300 mOsm). Compounds were diluted in external solution and locally perfused to the recording cell using Perfusion Pencil (Automate Scientific) and controlled by a ValveLink 8.2 controller (Automate Scientific). Whole cell recordings were sampled at 10 kHz and filtered at 5 kHz. Outside-out patches were obtained using 10-15MΩ electrodes pulled from standard glass capillaries (World Precision Instruments) and fire-polished with an MF-830 micro forge (Narishige). Single channel recordings were sampled at 20 kHz. Recordings were reduced to 1 kHz and low-pass filtered at 500 Hz for display and analysis using QuB (SUNY at Buffalo).
(§2) To test the hypothesis that VUAA1 directly agonized AgORco, whole-cell patch clamp responses were examined in AgORco+AgOR10 expressing cells as well as HEK293 cells stably expressing AgORco alone. […] The VUAA1-dependent currents in AgORco+AgOR10 cells resembled those resulting from application of benzaldehyde, an orthosteric agonist of AgOR10 (FIG. 3C) (Wang, 2010; Carey, 2010). […] To investigate the specificity of VUAA1 agonism, the inventors transiently transfected HEK cells with the AgORco orthologs of Drosophila melanogaster and Heliothis virescens, DmORco and HvOR2 respectively.

AgORco+AgOR10 [3] = target: T2, AgORco+AgOR10; experiment: Whole-cell patch clamp, HEK293 cells expressing AgORco+AgOR10; type: cell-based
Method: as §1, §2

[4] = tested on: Un-transfected HEK293 cells; experiment: Whole-cell patch clamp, un-transfected HEK293 control cells; type: cell-based, human
Method: as §1

[5] = target: T5, rat transient receptor potential vanilloid 1 (rTRPV1) (Rattus norvegicus, UniProt O35433); experiment: Whole-cell patch clamp, HEK cells stably expressing rTRPV1; type: cell-based
T5 construct: expressed in transfected cells
T5 sequence (O35433 whole entry): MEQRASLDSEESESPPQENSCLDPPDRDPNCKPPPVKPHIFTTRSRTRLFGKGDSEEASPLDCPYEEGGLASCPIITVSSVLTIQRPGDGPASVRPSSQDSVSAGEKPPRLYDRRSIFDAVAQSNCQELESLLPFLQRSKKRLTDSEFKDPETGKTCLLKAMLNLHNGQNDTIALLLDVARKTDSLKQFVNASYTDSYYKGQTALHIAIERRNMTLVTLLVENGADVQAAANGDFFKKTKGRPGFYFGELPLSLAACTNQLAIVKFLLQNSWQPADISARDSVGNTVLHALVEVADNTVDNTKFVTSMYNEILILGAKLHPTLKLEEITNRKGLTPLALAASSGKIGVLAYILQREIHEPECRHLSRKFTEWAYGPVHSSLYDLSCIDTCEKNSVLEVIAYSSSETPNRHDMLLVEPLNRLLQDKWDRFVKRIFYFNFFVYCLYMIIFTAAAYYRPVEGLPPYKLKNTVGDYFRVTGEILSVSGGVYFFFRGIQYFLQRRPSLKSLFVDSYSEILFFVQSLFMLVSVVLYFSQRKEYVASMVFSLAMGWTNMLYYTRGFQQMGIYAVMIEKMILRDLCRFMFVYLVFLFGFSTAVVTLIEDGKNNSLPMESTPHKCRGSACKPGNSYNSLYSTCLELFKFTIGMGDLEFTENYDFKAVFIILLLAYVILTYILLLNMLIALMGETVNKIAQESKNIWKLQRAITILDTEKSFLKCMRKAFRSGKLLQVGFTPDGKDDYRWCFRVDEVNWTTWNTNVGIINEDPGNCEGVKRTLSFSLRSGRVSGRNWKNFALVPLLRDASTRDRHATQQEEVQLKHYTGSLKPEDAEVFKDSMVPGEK

CCn1c(SCC(=O)Nc2ccc(C(C)C)cc2)nnc1-c1cnn(C)c1 [D00049 row 11]
EC50 [1]: 180 µM

CCn1c(SCC(=O)Nc2ccc(C(C)C)cc2)nnc1-c1cn[nH]c1 [D00049 row 12]
EC50 [1]: 200 µM

CCn1c(SCC(=O)N2c3ccccc3Sc3ccccc32)nnc1-c1ccco1
Orco 10 + Orco Angatonist % Reduction (AgORco+AgOR10 [2]): 48.26% | Orco 28 + Orco Antagonist % Reduction (Orco 28 + Orco): 28.73%

O=Cc1ccccc1 [Benzaldehyde]
whole-cell current response (AgORco): only Orco+AgOR10 cells responded to BA | whole-cell current response (AgORco+AgOR10 [3]; AgORco+AgOR10 cells, holding potential −60 mV): concentration-dependent responses | reversal potential of agonist-induced current (AgORco+AgOR10 [3]; AgORco+AgOR10 complexes, mean s.e.m.): −2.9±1.4 mV | whole-cell current response [4]: did not respond

CCn1c(Cc2ccccc2)nnc1SCC(=O)Nc1ccc(OC)cc1
Orco 28 + Orco Potentiator % increase (Orco 28 + Orco): 12.7%

CCn1c(SCC(=O)Nc2ccc(S(=O)(=O)Nc3ccccn3)cc2)nnc1-c1ccncc1
Orco 10 + Orco Potentiator % increase (AgORco+AgOR10 [2]; potentiator mode): 12.31% | Orco 28 + Orco Potentiator % increase (Orco 28 + Orco): 15.45%

COc1cc(CNC(=O)CCCC/C=C/C(C)C)ccc1O [Capsaicin, capsaicin, reference compound]
whole-cell current response [5]: robust response

CCn1c(Cc2c(C)[nH]c3ccccc23)nnc1SCC(=O)Nc1ccc(Br)cc1
Orco 10 + Orco Angatonist % Reduction (AgORco+AgOR10 [2]): 13.11% | Orco 28 + Orco Antagonist % Reduction (Orco 28 + Orco): 37.93%

CCn1c(SCC(=O)Nc2ccc(Cl)cc2C)nnc1-c1ccncc1
Orco 28 + Orco Potentiator % increase (Orco 28 + Orco): 17.69%

CCn1c(COc2ccccc2)nnc1SCC(=O)Nc1cc(C)ccc1OC
Orco 10 + Orco Angatonist % Reduction (AgORco+AgOR10 [2]): 33.67% | Orco 28 + Orco Antagonist % Reduction (Orco 28 + Orco): 17.21%

CCn1c(SCC(=O)Nc2ccc(C(C)C)cc2)nnc1-c1cccnc1 [D00049 row 2]
EC50 [1]: 20 µM
